Assay results taken from patent US20230113037A1 (Bayer Aktiengesellschaft, priority 2019, published 2023).
Where two headings read alike, the source gives them in different places.

Assays:
[1] = molecular target: T1, AHR (Mus musculus, UniProt P30561); assay: In vitro assay 3: antagonism in mouse cell line (AHR transactivation, firefly luciferase reporter, kynurenic acid prestimulated); assay type: cell-based
T1 sequence (P30561 1-848 P471L/N533S/M589L): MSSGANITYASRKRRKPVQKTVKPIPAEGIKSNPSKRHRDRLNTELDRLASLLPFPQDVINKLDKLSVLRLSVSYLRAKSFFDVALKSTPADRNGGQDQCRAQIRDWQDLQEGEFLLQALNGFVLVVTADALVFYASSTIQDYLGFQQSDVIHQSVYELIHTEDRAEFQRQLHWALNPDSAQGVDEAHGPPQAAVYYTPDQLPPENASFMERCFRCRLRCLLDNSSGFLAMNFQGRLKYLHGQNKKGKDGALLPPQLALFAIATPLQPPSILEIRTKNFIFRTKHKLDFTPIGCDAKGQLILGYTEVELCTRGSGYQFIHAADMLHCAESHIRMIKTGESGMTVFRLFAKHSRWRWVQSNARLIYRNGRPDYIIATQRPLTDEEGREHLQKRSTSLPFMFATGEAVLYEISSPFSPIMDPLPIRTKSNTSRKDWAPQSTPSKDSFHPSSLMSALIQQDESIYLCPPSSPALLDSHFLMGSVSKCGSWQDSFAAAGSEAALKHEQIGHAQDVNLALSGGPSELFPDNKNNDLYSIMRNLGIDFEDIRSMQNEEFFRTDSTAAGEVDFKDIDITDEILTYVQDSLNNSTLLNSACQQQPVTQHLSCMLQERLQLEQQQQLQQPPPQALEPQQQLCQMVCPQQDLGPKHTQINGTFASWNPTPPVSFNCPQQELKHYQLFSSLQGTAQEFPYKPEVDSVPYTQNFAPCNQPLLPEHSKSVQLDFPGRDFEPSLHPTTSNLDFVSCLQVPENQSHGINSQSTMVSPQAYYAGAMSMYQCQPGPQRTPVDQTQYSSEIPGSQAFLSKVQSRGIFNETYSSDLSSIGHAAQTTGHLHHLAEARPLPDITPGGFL
Method in brief: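 Luminescence from an AHR-dependent DRE-luciferase reporter, stably integrated in mouse cells, quantifies blockade of kynurenic acid-driven activation. Unstimulated cells mark maximal inhibition; normalization uses both control types, and multiply tested compounds carry mean or median values.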

[2] = molecular target: T2, AHR (Homo sapiens, UniProt P35869); assay: In vitro assay 1: antagonism in human cell line (AHR transactivation, firefly luciferase reporter, kynurenic acid prestimulated); assay type: cell-based; conditions: AHR Antagonism Human IC50 [M]
T2 construct: U87 MG glioblastoma cells (ATCC #HTB-14) endogenously expressing AHR; endogenous in cells; host or cells: U87 MG glioblastoma cells (ATCC #HTB-14)
T2 sequence (P35869 11-848): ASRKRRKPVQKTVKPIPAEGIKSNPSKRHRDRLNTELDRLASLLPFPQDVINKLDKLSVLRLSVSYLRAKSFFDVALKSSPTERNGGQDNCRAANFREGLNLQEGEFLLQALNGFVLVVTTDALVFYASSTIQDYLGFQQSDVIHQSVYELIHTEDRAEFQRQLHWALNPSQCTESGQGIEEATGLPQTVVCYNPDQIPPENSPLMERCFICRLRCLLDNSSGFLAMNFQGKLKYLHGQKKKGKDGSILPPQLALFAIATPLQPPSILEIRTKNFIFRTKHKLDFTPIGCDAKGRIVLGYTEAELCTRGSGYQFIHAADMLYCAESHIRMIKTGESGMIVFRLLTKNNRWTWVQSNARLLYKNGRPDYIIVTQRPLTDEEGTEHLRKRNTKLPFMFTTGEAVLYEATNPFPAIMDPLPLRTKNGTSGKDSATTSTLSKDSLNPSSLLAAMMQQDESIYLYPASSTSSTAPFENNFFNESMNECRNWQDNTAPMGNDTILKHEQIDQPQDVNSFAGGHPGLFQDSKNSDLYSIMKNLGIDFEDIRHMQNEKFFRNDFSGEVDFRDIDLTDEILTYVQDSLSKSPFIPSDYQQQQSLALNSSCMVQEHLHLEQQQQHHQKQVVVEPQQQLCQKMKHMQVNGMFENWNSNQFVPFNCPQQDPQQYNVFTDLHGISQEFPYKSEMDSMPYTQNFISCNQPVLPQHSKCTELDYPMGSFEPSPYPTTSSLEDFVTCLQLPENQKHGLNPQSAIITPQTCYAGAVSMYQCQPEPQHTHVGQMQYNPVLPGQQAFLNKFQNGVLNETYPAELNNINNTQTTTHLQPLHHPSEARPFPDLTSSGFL
Method in brief: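 Antagonism measured as loss of kynurenic acid-driven firefly luciferase from DRE reporter in stably transfected U87 MG cells; constitutive Renilla signal monitors cytotoxicity. Positive/negative control normalization, staurosporine 5 μM with 150 μM kynurenic acid as inhibition control; replicates given as mean or median.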

[3] = mouse Hepa 1c1c7 cells, 200 μM kynurenic acid, 20 hours, read-out: AHR Antagonism Mouse IC50
[4] = read-out: AHR Antagonism Mouse IC50, mouse Hepa 1c1c7 cells, 200 μM kynurenic acid, 20 hours

Structure (SMILES)	IC50 [1, 3]	IC50 [2]	IC50 [1, 4]
Cn1cc(-c2nc3c4c(Br)cccc4nc(N[C@@H]4CCCCNC4=O)n3n2)cn1 [Example 165, (3R)-3-{[10-bromo-2-(1-methyl-1H-pyrazol-4-yl)[1,2,4]triazolo[1,5-c]quinazolin-5-yl]amino}azepan-2-one]	0.0986 µM	1.65e-08 M	
Cn1cc(-c2nc3c4c(Cl)cccc4nc(N[C@@H]4CCCCNC4=O)n3n2)cn1 [Example 169, (3R)-3-{[10-chloro-2-(1-methyl-1H-pyrazol-4-yl)[1,2,4]triazolo[1,5-c]quinazolin-5-yl]amino}azepan-2-one]		7.27e-09 M	0.118 µM
COc1ccc(-c2nc3c4c(C(F)(F)F)cccc4nc(N[C@@H]4CCCCNC4=O)n3n2)cc1 [Example 172, (3R)-3-{[2-(4-methoxyphenyl)-10-(trifluoromethyl)[1,2,4]triazolo[1,5-c]quinazolin-5-yl]amino}azepan-2-one]	0.012 µM	1.29e-08 M	
Cn1cc(-c2nc3c4c(C(F)(F)F)cccc4nc(N[C@@H]4CCCCNC4=O)n3n2)cn1 [Example 173, (3R)-3-{[2-(1-methyl-1H-pyrazol-4-yl)-10-(trifluoromethyl)[1,2,4]triazolo[1,5-c]quinazolin-5-yl]amino}azepan-2-one]	0.112 µM	7.21e-08 M	
O=C1NCCCC[C@H]1Nc1nc2cccc(C3CC3)c2c2nc(-c3cccc(F)c3)nn12 [Example 175, (3R)-3-{[10-cyclopropyl-2-(3-fluorophenyl)[1,2,4]triazolo[1,5-c]quinazolin-5-yl]amino}azepan-2-one]	0.0223 µM	3.24e-08 M	
COc1cccc(-c2nc3c4c(C)cccc4nc(NC4CCNC4=O)n3n2)c1 (stereo not drawn) [Example 179, 3-{[2-(3-methoxyphenyl)-10-methyl[1,2,4]triazolo[1,5-c]quinazolin-5-yl]amino}pyrrolidin-2-one]		1.01e-07 M	0.246 µM
COc1cccc(-c2nc3c4c(C)cccc4nc(NC4CCCNC4=O)n3n2)c1 (stereo not drawn) [Example 180, 3-{[2-(3-methoxyphenyl)-10-methyl[1,2,4]triazolo[1,5-c]quinazolin-5-yl]amino}piperidin-2-one]	0.253 µM	1.27e-07 M	
COc1cccc(-c2nc3c4c(C)cccc4nc(N[C@H]4CCCCNC4=O)n3n2)c1 [Example 181, (3S)-3-{[2-(3-methoxyphenyl)-10-methyl[1,2,4]triazolo[1,5-c]quinazolin-5-yl]amino}azepan-2-one]	0.0257 µM	3.37e-07 M	
COc1cccc(-c2nc3c4c(C)cccc4nc(N[C@H]4CCCNC4=O)n3n2)c1 [Example 182, (3S)-3-{[2-(3-methoxyphenyl)-10-methyl[1,2,4]triazolo[1,5-c]quinazolin-5-yl]amino}piperidin-2-one]	1.02 µM	2.54e-07 M	
Cc1cccc2nc(N[C@@H]3CCCCNC3=O)n3nc(-c4cnn(C)c4)nc3c12 [Example 183, (3R)-3-{[10-methyl-2-(1-methyl-1H-pyrazol-4-yl)[1,2,4]triazolo[1,5-c]quinazolin-5-yl]amino}azepan-2-one]	0.453 µM	2.48e-08 M	
COc1cccc(-c2nc3c4c(F)cccc4nc(N[C@H](C)C(N)=O)n3n2)c1 [Example 184, N^2-[10-fluoro-2-(3-methoxyphenyl)[1,2,4]triazolo[1,5-c]quinazolin-5-yl]-D-alaninamide]	0.0628 µM	9.66e-09 M	
COc1cccc(-c2nc3c4c(F)cccc4nc(N[C@@H]4CCCCNC4=O)n3n2)c1 [Example 185]	0.00984 µM	1.05e-08 M	
O=C1NCCCC[C@H]1Nc1nc2c(Cl)cccc2c2nc(-c3ccncc3)nn12 [Example 193, (3R)-3-{[7-Chloro-2-(pyridin-4-yl)[1,2,4]triazolo[1,5-c]quinazolin-5-yl]amino}azepan-2-one]	0.0872 µM	2.05e-08 M	
Cc1nnc(-c2nc3c4ccccc4nc(N[C@@H]4CCCCNC4=O)n3n2)o1 [Example 199, (3R)-3-{[2-(5-methyl-1,3,4-oxadiazol-2-yl)[1,2,4]triazolo[1,5-c]quinazolin-5-yl]amino}azepan-2-one]	0.114 µM	5.37e-07 M	
O=C1NCCCC[C@H]1Nc1nc2ccccc2c2nc(-c3ccc(Br)cc3Cl)nn12 [Example 200, (3R)-3-{[2-(4-bromo-2-chlorophenyl)[1,2,4]triazolo[1,5-c]quinazolin-5-yl]amino}azepan-2-one]	> 20 µM	2.87e-09 M	

The next lines start with results.

IC50 [1, 3]	IC50 [2]	Structure (SMILES)	IC50 [1, 4]
0.00454 µM	2.44e-09 M	COc1ccc(-c2nc3c4c(Br)cccc4nc(N[C@@H]4CCCCNC4=O)n3n2)cc1 [Example 164]	
0.00221 µM	9.09e-10 M	COc1ccc(-c2nc3c4c(Cl)cccc4nc(N[C@@H]4CCCCNC4=O)n3n2)cc1 [Example 168, (3R)-3-{[10-chloro-2-(4-methoxyphenyl)[1,2,4]triazolo[1,5-c]quinazolin-5-yl]amino}azepan-2-one]	
0.00404 µM	2.26e-08 M	O=C1NCCCC[C@H]1Nc1nc2cccc(C(F)(F)F)c2c2nc(-c3ccc(F)cc3)nn12 [Example 174, (3R)-3-{[2-(4-fluorophenyl)-10-(trifluoromethyl)[1,2,4]triazolo[1,5-c]quinazolin-5-yl]amino}azepan-2-one]	
0.00655 µM	6.81e-09 M	COc1ccc(-c2nc3c4c(C5CC5)cccc4nc(N[C@@H]4CCCCNC4=O)n3n2)cc1 [Example 176, (3R)-3-{[10-cyclopropyl-2-(4-methoxyphenyl)[1,2,4]triazolo[1,5-c]quinazolin-5-yl]amino}azepan-2-one]	
0.00234 µM	3.98e-09 M	COc1cccc(-c2nc3c4c(C)cccc4nc(N[C@@H]4CCCCNC4=O)n3n2)c1 [Example 178, (3R)-3-{[2-(3-methoxyphenyl)-10-methyl[1,2,4]triazolo[1,5-c]quinazolin-5-yl]amino}azepan-2-one]	
0.00383 µM	1.17e-09 M	Cn1cc(-c2nc3c4cccc(Cl)c4nc(N[C@@H]4CCCCNC4=O)n3n2)cn1 [Example 194, (3R)-3-{[7-Chloro-2-(1-methyl-1H-pyrazol-4-yl)[1,2,4]triazolo[1,5-c]quinazolin-5-yl]amino}azepan-2-one]	
0.00255 µM	3.06e-09 M	CC(C)n1cc(-c2nc3c4ccccc4nc(N[C@@H]4CCCCNC4=O)n3n2)cn1 [Example 195, (3R)-3-({2-[1-(propan-2-yl)-1H-pyrazol-4-yl][1,2,4]triazolo[1,5-c]quinazolin-5-yl]amino)azepan-2-one]	
0.00111 µM	4.09e-09 M	O=C1NCCCC[C@H]1Nc1nc2ccccc2c2nc(-c3cccc(Cl)c3Cl)nn12 [Example 196, (3R)-3-{[2-(2,3-dichlorophenyl)[1,2,4]triazolo[1,5-c]quinazolin-5-yl]amino}azepan-2-one]	
0.00182 µM	4.23e-09 M	O=C1NCCCC[C@H]1Nc1nc2ccccc2c2nc(-c3cc(F)ccc3F)nn12 [Example 197, (3R)-3-{[2-(2,5-difluorophenyl)[1,2,4]triazolo[1,5-c]quinazolin-5-yl]amino}azepan-2-one]	
